Tests used:
Assay type in all cases: cell-based
[1] = tested on: Leishmania donovani promastigotes; assay: In vitro antileishmanial assay, promastigotes; details: for IC50: read-out: L. donovani promastigotes IC50; for IC90: read-out: L. donovani promastigotes IC90
[2] = tested on: Leishmania donovani axenic amastigotes; assay: In vitro antileishmanial assay, axenic amastigotes; details: for IC50: read-out: L. donovani Axenic amastigotes IC50; for IC90: read-out: L. donovani Axenic amastigotes IC90
[3] = tested on: Plasmodium falciparum chloroquine sensitive (D6, Sierra Leone); assay: In vitro antimalarial assay; details: D6, read-out: P. falciparum IC50 (D6)
[4] = tested on: Plasmodium falciparum chloroquine resistant (W2, Indo China); assay: In vitro antimalarial assay; details: W2, read-out: P. falciparum IC50 (W2)
[5] = tested on: Blood stage forms of Trypanosoma brucei brucei; assay: In vitro antitrypanosomal assay; details: NA: not active

| IC50 [1] | IC90 [1] | IC50 [2] | IC90 [2] | IC50 ([5]; read-out: Trypanosoma brucei IC50) | IC90 ([5]; read-out: Trypanosoma brucei IC90) | Compound | IC50 [3] | IC50 [4] | T. brucei IC9 ([5]; Table 3) |
| --- | --- | --- | --- | --- | --- | --- | --- | --- | --- |
| 0.192 µM | 0.312 µM | 1.73 µM | 2 µM |  |  | C[C@@H]1[C@H](O)[C@@H](C)/C=C/C=C/C=C/C=C/C=C/C=C/C=C/[C@H](O[C@@H]2O[C@H](C)[C@@H](O)[C@H](N)[C@@H]2O)C[C@@H]2O[C@](O)(C[C@@H](O)C[C@@H](O)[C@H](O)CC[C@@H](O)C[C@@H](O)CC(=O)O[C@H]1C)C[C@H](O)[C@H]2C(=O)O [Amp B, Amphotericin B] |  |  |  |
|  |  |  |  |  |  | CCN(CC)CCCC(C)Nc1ccnc2cc(Cl)ccc12 (stereo not shown) [CQ, chloroquine] | 0.052 µM | 0.46 µM |  |
|  |  |  |  | 21.3 ± 2.01 µM | 59.2 ± 5.75 µM | NCCCC(N)(C(=O)O)C(F)F (stereo not shown) [DFMO, difluoromethylornithine] |  |  | 59.175 ± 5.748 µM |
| 2.04 µM | 3.67 µM | 15.3 µM | 16.9 µM |  |  | N=C(N)c1ccc(OCCCCCOc2ccc(C(=N)N)cc2)cc1 [Pent, pentamidine] |  |  |  |
